Assay results: US20080262043A1, “Solid Crystalline Form of Pantoprazole Free Acid, Salts Derived Therefrom and Process for Their Preparation” (MEDICHEM, S.A., priority 2005, published 2008)

Test: Solid-state stability of the crystalline form upon drying under vacuum
Type: physicochemical
Settings: drying under vacuum at approximately 40° C. for approximately 2 hours

Q: Which “change in the crystalline structure upon drying” value does the source give for `COc1ccnc(C[S+]([O-])c2nc3cc(OC(F)F)ccc3[nH]2)c1OC` (stereo not shown) [Form III pantoprazole free acid, 5-(difluoromethoxy)-2-[[(3,4-dimethoxy-2-pyridinyl)methyl]sulfinyl]-1H-benzimidazole] here?
A: no change in the crystalline structure
